Inhibition data for ten compounds are collected here from patent EP3212201B1, “NUCLEOSIDE KINASE INHIBITORS” (BCI Pharma, priority 2014, dated 2016).

What all share (test): FRET-based coupled-enzyme protein kinase inhibition assay
Holding throughout (type): biochemical
Common to all, as to conditions: compound at 10 µM, 1% DMSO

In one test the target is AMPK A1/B1/G1 (Homo sapiens, UniProt Q13131). In short, it runs like this: (§1)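 FRET peptide (coumarin donor, fluorescein acceptor) was phosphorylated by each kinase in 50 mM HEPES pH 7.5, 10 mM MgCl2, 1 mM EDTA, 0.01% BRIJ-35 for 60 min at room temperature. ATP was at apparent Km, compounds in 1% DMSO. Protease development reagent then cleaved non-phosphorylated peptide over 60 min.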

A further test concerns the target T1, AURKA (Aurora A) (Homo sapiens, UniProt O14965).
T1 sequence (O14965 1-403): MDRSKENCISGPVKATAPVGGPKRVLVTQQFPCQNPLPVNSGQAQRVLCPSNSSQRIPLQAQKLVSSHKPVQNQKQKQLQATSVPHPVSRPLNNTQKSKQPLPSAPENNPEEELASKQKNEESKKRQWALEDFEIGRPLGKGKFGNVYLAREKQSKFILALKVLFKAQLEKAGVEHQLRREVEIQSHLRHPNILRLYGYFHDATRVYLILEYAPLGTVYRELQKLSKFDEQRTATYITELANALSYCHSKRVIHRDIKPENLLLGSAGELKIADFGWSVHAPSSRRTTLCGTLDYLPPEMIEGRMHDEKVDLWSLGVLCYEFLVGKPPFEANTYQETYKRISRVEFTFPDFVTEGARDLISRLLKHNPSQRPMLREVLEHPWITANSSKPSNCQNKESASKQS
In short, it runs like this: as §1

The target in a further test is BTK (Homo sapiens, UniProt Q06187). The method in brief:
as §1

The target in the next test is CDK1/cyclin B (Homo sapiens, UniProt P06493). The method in brief: as §1
The target in a further test is CSNK1G2 (CK1 gamma 2) (Homo sapiens, UniProt P78368). The method in brief: as §1
The next test concerns the target EGFR (ErbB1) (Homo sapiens, UniProt P00533). The method in brief:
as §1

Another test addresses EPHA2 (Homo sapiens, UniProt P29317). The method in brief:
as §1

The target of a further test is ERBB2 (HER2) (Homo sapiens, UniProt P04626). In short, it runs like this:
as §1

The target of a further test is FRAP1 (mTOR) (Homo sapiens, UniProt P42345). The method in brief:
as §1

In another test the target is INSR (Homo sapiens, UniProt P06213). In short, it runs like this: as §1
The target of the next test is MAP4K4 (HGK) (Homo sapiens, UniProt O95819). In short, it runs like this:
as §1

In another test the target is MAPK14 (p38 alpha) (Homo sapiens, UniProt Q16539). The method in brief:
as §1

The target in the next test is MAPK8 (JNK1) (Homo sapiens, UniProt P45983). The method in brief: as §1
For another test, the target named is ROCK1 (Homo sapiens, UniProt Q13464). The method in brief: as §1
Another test addresses SRC (Homo sapiens, UniProt P12931). In short, it runs like this:
as §1

Chain of BTK (Q06187 whole entry, species assumed): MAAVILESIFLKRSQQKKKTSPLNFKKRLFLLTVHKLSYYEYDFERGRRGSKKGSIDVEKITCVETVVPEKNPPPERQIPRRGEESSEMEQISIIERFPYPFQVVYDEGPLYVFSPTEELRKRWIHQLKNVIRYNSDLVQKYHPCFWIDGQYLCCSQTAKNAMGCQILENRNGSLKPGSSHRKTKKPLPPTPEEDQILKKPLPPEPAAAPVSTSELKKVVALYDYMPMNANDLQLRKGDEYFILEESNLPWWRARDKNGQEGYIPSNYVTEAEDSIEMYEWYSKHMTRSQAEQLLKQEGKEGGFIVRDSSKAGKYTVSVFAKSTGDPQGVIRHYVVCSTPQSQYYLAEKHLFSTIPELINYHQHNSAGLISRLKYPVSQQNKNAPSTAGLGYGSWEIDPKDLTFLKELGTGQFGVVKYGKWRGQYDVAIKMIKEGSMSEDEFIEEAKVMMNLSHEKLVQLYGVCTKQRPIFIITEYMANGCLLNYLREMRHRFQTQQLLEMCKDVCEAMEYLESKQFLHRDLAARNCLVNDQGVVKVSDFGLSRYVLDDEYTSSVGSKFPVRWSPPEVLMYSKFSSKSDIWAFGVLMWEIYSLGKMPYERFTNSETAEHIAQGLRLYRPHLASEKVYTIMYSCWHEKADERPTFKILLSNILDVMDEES
Chain of MAPK14 (p38 alpha) (Q16539 whole entry, species assumed): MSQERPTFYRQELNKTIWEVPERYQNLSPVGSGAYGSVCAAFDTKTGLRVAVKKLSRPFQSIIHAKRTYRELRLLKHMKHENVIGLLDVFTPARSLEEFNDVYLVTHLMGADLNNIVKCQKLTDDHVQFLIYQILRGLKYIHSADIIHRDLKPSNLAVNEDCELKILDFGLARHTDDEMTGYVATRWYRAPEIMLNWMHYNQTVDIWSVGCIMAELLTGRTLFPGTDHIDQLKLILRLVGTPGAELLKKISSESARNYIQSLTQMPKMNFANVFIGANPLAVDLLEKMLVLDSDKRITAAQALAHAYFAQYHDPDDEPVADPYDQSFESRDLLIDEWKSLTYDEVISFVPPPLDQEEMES
Chain of EGFR (ErbB1) (P00533 25-1210, species assumed): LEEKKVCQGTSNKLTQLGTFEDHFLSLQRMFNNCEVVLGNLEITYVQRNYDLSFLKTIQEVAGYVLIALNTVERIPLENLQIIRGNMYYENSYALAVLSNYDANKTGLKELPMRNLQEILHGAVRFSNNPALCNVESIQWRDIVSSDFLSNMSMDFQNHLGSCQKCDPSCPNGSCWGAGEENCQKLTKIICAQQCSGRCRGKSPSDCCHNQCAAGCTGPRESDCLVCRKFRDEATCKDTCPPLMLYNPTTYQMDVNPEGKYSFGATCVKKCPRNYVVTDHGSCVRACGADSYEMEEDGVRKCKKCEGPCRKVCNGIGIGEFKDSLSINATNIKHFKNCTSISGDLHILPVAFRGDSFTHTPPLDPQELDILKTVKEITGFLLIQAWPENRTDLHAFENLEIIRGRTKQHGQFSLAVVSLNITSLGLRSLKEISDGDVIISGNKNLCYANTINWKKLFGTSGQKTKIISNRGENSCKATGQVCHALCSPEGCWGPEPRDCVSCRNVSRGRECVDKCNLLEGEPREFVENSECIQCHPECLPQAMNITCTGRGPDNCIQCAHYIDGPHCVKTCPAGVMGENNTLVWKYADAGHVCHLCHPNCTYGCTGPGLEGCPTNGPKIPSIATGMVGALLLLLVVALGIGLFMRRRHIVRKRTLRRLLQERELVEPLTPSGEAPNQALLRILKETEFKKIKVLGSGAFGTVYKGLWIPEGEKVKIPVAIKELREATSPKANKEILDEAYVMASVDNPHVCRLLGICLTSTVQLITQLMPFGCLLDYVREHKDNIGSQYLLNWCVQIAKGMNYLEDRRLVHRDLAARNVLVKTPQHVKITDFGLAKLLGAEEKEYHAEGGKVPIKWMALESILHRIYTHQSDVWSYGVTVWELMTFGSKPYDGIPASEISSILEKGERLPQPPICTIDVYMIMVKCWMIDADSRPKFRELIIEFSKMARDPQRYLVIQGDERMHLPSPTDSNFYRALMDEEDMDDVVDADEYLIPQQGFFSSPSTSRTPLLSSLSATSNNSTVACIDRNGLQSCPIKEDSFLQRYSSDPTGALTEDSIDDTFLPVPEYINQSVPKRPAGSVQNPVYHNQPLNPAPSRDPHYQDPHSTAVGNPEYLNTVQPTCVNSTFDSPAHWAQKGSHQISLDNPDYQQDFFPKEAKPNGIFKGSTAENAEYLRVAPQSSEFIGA
Chain of CSNK1G2 (CK1 gamma 2) (P78368 whole entry, species assumed): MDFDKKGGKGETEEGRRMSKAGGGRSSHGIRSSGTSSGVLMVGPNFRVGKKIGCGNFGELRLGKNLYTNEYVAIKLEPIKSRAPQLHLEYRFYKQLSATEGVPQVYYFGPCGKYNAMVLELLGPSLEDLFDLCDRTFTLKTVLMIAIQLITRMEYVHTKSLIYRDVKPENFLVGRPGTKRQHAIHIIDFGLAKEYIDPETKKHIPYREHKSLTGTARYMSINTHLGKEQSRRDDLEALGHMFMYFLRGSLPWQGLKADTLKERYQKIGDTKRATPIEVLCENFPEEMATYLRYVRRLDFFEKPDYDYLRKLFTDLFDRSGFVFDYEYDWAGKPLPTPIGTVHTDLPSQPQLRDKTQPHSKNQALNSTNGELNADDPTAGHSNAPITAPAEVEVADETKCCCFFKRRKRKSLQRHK
Chain of ROCK1 (Q13464 whole entry, species assumed): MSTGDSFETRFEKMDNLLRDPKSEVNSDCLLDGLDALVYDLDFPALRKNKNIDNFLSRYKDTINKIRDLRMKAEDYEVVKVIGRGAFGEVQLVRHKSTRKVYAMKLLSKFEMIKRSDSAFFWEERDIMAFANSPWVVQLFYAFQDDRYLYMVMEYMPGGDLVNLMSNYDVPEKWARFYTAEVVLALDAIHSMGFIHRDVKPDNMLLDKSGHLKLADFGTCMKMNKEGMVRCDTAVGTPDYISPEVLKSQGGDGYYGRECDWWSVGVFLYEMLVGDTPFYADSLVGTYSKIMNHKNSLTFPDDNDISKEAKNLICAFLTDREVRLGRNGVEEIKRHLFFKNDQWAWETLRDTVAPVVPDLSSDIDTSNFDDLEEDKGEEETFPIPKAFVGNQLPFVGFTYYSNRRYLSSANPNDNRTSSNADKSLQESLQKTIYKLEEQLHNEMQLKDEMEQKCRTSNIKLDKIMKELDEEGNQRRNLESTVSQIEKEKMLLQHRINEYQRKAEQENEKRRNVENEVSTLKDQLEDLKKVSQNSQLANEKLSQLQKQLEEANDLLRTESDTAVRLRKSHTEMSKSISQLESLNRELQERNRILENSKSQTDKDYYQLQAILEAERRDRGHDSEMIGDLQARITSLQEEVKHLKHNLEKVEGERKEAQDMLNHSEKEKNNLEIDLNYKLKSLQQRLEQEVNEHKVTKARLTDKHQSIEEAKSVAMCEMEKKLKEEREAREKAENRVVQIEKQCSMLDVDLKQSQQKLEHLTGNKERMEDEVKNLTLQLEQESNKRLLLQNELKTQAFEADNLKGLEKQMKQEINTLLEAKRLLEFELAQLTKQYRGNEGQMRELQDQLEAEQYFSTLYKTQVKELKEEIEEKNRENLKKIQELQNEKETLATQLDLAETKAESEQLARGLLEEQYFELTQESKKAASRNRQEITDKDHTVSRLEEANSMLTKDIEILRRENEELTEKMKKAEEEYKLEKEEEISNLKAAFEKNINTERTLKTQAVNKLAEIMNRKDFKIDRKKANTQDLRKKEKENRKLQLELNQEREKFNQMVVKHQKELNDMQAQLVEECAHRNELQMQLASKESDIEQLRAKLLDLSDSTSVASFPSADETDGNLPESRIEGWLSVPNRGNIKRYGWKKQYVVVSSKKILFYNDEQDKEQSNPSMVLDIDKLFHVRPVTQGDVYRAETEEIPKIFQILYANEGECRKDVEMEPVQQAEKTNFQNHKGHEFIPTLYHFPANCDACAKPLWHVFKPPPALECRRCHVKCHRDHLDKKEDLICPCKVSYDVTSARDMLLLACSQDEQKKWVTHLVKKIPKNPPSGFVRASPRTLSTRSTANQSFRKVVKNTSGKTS
Chain of CDK1/cyclin B (P06493 whole entry, species assumed): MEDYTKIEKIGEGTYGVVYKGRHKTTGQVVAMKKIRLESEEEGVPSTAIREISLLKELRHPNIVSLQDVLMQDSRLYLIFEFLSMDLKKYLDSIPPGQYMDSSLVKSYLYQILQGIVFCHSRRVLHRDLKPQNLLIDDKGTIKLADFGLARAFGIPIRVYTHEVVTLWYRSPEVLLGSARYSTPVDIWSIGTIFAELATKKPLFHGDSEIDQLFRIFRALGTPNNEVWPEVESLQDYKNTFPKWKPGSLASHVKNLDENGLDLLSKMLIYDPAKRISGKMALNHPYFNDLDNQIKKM
Chain of CDK1/cyclin B (P14635 whole entry partner, species assumed): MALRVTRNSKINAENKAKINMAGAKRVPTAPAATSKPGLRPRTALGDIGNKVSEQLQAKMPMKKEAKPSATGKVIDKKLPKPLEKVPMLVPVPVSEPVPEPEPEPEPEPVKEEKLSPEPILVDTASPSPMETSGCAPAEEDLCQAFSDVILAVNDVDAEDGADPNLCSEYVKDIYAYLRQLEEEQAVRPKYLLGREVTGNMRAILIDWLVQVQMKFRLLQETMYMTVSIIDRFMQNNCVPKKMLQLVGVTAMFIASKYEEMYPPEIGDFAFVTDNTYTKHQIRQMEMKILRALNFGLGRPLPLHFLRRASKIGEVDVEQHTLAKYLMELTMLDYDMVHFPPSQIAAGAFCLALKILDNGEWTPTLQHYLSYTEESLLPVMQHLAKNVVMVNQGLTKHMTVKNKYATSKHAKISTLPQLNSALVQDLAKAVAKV

As to `Nc1ncnc2c1ncn2[C@@H]1O[C@H](COC(=O)NCCCc2nc3ccccc3[nH]2)[C@@H](O)[C@H]1O` [Compound C1], the inhibition at 10 µM against AMPK A1/B1/G1 is 17%; against AURKA (Aurora A), 9%; against BTK it was 9%; on CDK1/cyclin B, -2%; against CSNK1G2 (CK1 gamma 2), -2%; at EGFR (ErbB1), 34%. In addition, the inhibition at 10 µM on EPHA2 is 8%; at ERBB2 (HER2), 5%; against FRAP1 (mTOR) it was -2%; on INSR, 0%; against MAP4K4 (HGK), 17%; against MAPK14 (p38 alpha), -3%. In addition, the results for the inhibition at 10 µM on MAPK8 (JNK1), against ROCK1 and against SRC were 12%, 18% and 46%, respectively.
`C[C@@H](NC(=O)OC[C@H]1O[C@@H](n2cnc3c(N)ncnc32)[C@H](O)[C@@H]1O)c1ccc(Cl)cc1` [Compound C4]: the inhibition at 10 µM against AMPK A1/B1/G1 is 17%; against AURKA (Aurora A) it was 8%; on BTK, 2%; at CDK1/cyclin B it was 8%; against CSNK1G2 (CK1 gamma 2), 7%; on EGFR (ErbB1) it was 22%. Also, the inhibition at 10 µM is 4% against EPHA2; 2% against ERBB2 (HER2); -5% against FRAP1 (mTOR); 5% against INSR; 16% against MAP4K4 (HGK); -1% at MAPK14 (p38 alpha). The inhibition at 10 µM at MAPK8 (JNK1) was 14%; on ROCK1 it was -7%; at SRC it was 33%.
With `Nc1ncnc2c1ncn2[C@@H]1O[C@H](COC(=O)NC[C@H](O)CO)[C@@H](O)[C@H]1O` [Compound C8], the inhibition at 10 µM was 17% against AMPK A1/B1/G1; -7% on AURKA (Aurora A); 4% on BTK; 4% against CDK1/cyclin B; 13% at CSNK1G2 (CK1 gamma 2); 14% at EGFR (ErbB1). The inhibition at 10 µM is 12% against EPHA2; -7% on ERBB2 (HER2); 5% against FRAP1 (mTOR); 2% against INSR; 9% at MAP4K4 (HGK); -3% against MAPK14 (p38 alpha). The inhibition at 10 µM at MAPK8 (JNK1) is 13%; against ROCK1, 2%; at SRC, -13%.
Regarding `Nc1ncnc2c1ncn2[C@@H]1O[C@H](COC(=O)N2CCC[C@H]2CO)[C@@H](O)[C@H]1O` [Compound C9], the inhibition at 10 µM against AMPK A1/B1/G1 is 4%; against AURKA (Aurora A), -5%; against BTK it was 9%; against CDK1/cyclin B it was 3%; against CSNK1G2 (CK1 gamma 2) it was -5%; against EGFR (ErbB1), -2%. Besides, the inhibition at 10 µM was 5% on EPHA2; -19% against ERBB2 (HER2); -3% against FRAP1 (mTOR); 4% against INSR; -2% on MAP4K4 (HGK); -4% on MAPK14 (p38 alpha). Moreover, the figures for the inhibition at 10 µM at MAPK8 (JNK1), against ROCK1 and against SRC were 3%, -10% and 16%, respectively.
Regarding `Nc1ncnc2c1ncn2[C@@H]1O[C@H](COC(=O)N[C@@H]2CCN(Cc3ccccc3)C2)[C@@H](O)[C@H]1O` [Compound C10], the inhibition at 10 µM against AMPK A1/B1/G1 was 11%; at AURKA (Aurora A), -1%; against BTK, 7%; on CDK1/cyclin B it was 11%; against CSNK1G2 (CK1 gamma 2), 7%; at EGFR (ErbB1), 27%. In addition, the inhibition at 10 µM against EPHA2 was 9%; against ERBB2 (HER2), -5%; on FRAP1 (mTOR) it was -3%; on INSR, 3%; at MAP4K4 (HGK) it was 8%; against MAPK14 (p38 alpha), 6%. Moreover, the inhibition at 10 µM against MAPK8 (JNK1) is 6%; against ROCK1, -2%; against SRC, 25%.
With `Nc1ncnc2c1ncn2[C@@H]1O[C@H](COC(=O)N2CCN(Cc3ccccc3)CC2CO)[C@@H](O)[C@H]1O` (stereo partly drawn) [Compound C13], the inhibition at 10 µM on AMPK A1/B1/G1 is 6%; at AURKA (Aurora A), -1%; against BTK, 9%; against CDK1/cyclin B it was 9%; against CSNK1G2 (CK1 gamma 2), 11%; against EGFR (ErbB1) it was 8%. The inhibition at 10 µM against EPHA2 was 3%; against ERBB2 (HER2) it was 3%; on FRAP1 (mTOR) it was -1%; against INSR, -3%; against MAP4K4 (HGK), -5%; against MAPK14 (p38 alpha) it was 0%. For the same compound, the inhibition at 10 µM at MAPK8 (JNK1) was 2%; against ROCK1 it was -7%; against SRC it was 29%.
On to `CC(C)N1CCC(NC(=O)OC[C@H]2O[C@@H](n3cnc4c(N)ncnc43)[C@H](O)[C@@H]2O)CC1` [Compound C19], for which the inhibition at 10 µM on AMPK A1/B1/G1 was 5%; at AURKA (Aurora A) it was 6%; at BTK, -1%; against CDK1/cyclin B it was 7%; against CSNK1G2 (CK1 gamma 2) it was 6%; against EGFR (ErbB1) it was 17%. The inhibition at 10 µM against EPHA2 was 7%; on ERBB2 (HER2), -7%; on FRAP1 (mTOR), 5%; against INSR, 0%; at MAP4K4 (HGK), 17%; on MAPK14 (p38 alpha), -1%. For the same compound, the inhibition at 10 µM against MAPK8 (JNK1) is 0%; against ROCK1, 2%; on SRC, -1%.
Take `Nc1ncnc2c1ncn2[C@@H]1O[C@H](COC(=O)NCCN2CCCC2=O)[C@@H](O)[C@H]1O` [Compound C22]: the inhibition at 10 µM is 4% against AMPK A1/B1/G1; 5% against AURKA (Aurora A); -1% against BTK; 7% on CDK1/cyclin B; 2% against CSNK1G2 (CK1 gamma 2); 11% at EGFR (ErbB1). The inhibition at 10 µM against EPHA2 is 1%; at ERBB2 (HER2), -9%; against FRAP1 (mTOR) it was 0%; at INSR it was -5%; at MAP4K4 (HGK), 17%; against MAPK14 (p38 alpha), -1%. Besides, the values for the inhibition at 10 µM against MAPK8 (JNK1), at ROCK1 and against SRC were 5%, -7% and 12%, respectively.
With `Nc1ncnc2c1ncn2[C@@H]1O[C@H](COC(=O)N2CCN(CCc3ccccc3)CC2)[C@@H](O)[C@H]1O` [Compound C26], the inhibition at 10 µM at AMPK A1/B1/G1 was 3%; on AURKA (Aurora A), 1%; at BTK, 0%; at CDK1/cyclin B, 8%; at CSNK1G2 (CK1 gamma 2) it was 0%; against EGFR (ErbB1) it was 13%. The inhibition at 10 µM on EPHA2 is -1%; against ERBB2 (HER2) it was 8%; on FRAP1 (mTOR), -6%; against INSR, 2%; against MAP4K4 (HGK), 17%; on MAPK14 (p38 alpha) it was -6%. In addition, the inhibition at 10 µM at MAPK8 (JNK1) was 8%; against ROCK1 it was -12%; against SRC, 29%.
For `CN1CCN(CCNC(=O)OC[C@H]2O[C@@H](n3cnc4c(N)ncnc43)[C@H](O)[C@@H]2O)CC1` [Compound C46], the inhibition at 10 µM on AMPK A1/B1/G1 was 4%; against AURKA (Aurora A) it was 3%; against BTK, 0%; on CDK1/cyclin B it was 7%; on CSNK1G2 (CK1 gamma 2), -4%; against EGFR (ErbB1) it was 14%. The inhibition at 10 µM against EPHA2 is 3%; at ERBB2 (HER2), -14%; on FRAP1 (mTOR) it was 5%; on INSR, 0%; on MAP4K4 (HGK) it was 13%; against MAPK14 (p38 alpha), 5%. Also, the inhibition at 10 µM is -2% against MAPK8 (JNK1), -3% at ROCK1 and 17% at SRC.

In general, inhibition refers to the change of the read-out against control, counted positive when it falls.
